# Measurements published in ChEMBL document CHEMBL5120865, “Exploration of 6-methyl-7-(Hetero)Aryl-7-Deazapurine ribonucleosides as antileishmanial agents” (Eur J Med Chem, 2022).
# Key:
# [1] = Cytotoxicity against human MRC5 cells assessed as reduction in cell viability incubated for 3 days by resazurin dye based fluorescence analysis; format: toxicity; details: time 3 day
# [2] = Selectivity index, ratio of CC50 for Cytotoxicity against Swiss mouse peritoneal macrophages to EC50 for intracellular Leishmania infantum MHOM/MA(BE)/67 ITMAP263 amastigotes infected in Swiss mouse peritoneal macrophages; format: toxicity, cell-based; details: read-out: Ratio CC50/EC50
# [3] = Cytotoxicity against Swiss mouse peritoneal macrophages assessed as reduction in cell viability measured after 5 days by microscopic analysis; format: toxicity, cell-based, Peritoneal macrophage; details: time 5 day
# Leishmania infantum [4] = assay: Antileishmanial activity against intracellular Leishmania infantum MHOM/MA(BE)/67 ITMAP263 amastigotes infected in Swiss mouse peritoneal macrophage assessed as inhibition of parasite growth measured after 5 days by geimsa staining based microscopic analysis; format: functional, organism-based; details: MHOM/MA(BE)/67 ITMAP263, Peritoneal macrophage, 120 h
# Trypanosoma cruzi = assay: Antitrypanosomal activity against nifurtimox-sensitive Tulahuen CL2 amastigotes expressing beta galactosidase infected in human MRC5 cells assessed as inhibition of parasite growth using chlorophenol red beta-D-galactopyranoside as substrate and measured after 7 days by spectrophotometric analysis; format: functional, organism-based; details: Tulahuen CL2, MRC5, 168 h, read-out: EC50
# [5] = Selectivity index, ratio of CC50 for cytotoxicity against human MRC5 cells to EC50 for Trypanosoma cruzi Tulahuen CL2 amastigotes expressing beta galactosidase infected in human MRC5 cells; format: toxicity, cell-based; details: read-out: Ratio CC50/EC50
# [6] = Metabolic stability in mouse liver microsomes S9 fraction assessed as UGT-mediated metabolism by measuring parent compound remaining measured after 15 mins in presence of NADPH; format: ADME, subcellular; details: read-out: Stability
# [7] = Metabolic stability in golden hamster liver microsomes S9 fraction assessed as UGT-mediated metabolism by measuring parent compound remaining measured after 30 mins in presence of NADPH; format: ADME, subcellular, Mesocricetus auratus; details: read-out: Stability
# [8] = molecular target: T1, UDP-glucuronosyltransferases (UGTs) (Homo sapiens, UniProt O60656+O75310+O75795+P06133+P0DTE4+P0DTE5+P16662+P19224+P22309+P22310+P35503+P35504+P36537+P54855+Q6UWM9+Q9BY64+Q9HAW7+Q9HAW8+Q9HAW9); assay: Metabolic stability in human liver microsomes S9 fraction assessed as UGT-mediated metabolism by measuring parent compound remaining measured after 15 mins in presence of NADPH; format: ADME, subcellular; details: read-out: Stability
# [9] = Metabolic stability in mouse liver microsomes S9 fraction assessed as UGT-mediated metabolism by measuring parent compound remaining measured after 30 mins in presence of NADPH; format: ADME, subcellular; details: read-out: Stability
# [10] = Metabolic stability in golden hamster liver microsomes S9 fraction assessed as CYP450-mediated metabolism by measuring parent compound remaining measured after 30 mins in presence of NADPH; format: ADME, subcellular, Mesocricetus auratus; details: read-out: Stability
# [11] = Metabolic stability in mouse liver microsomes S9 fraction assessed as UGT-mediated metabolism by measuring parent compound remaining measured after 60 mins in presence of NADPH; format: ADME, subcellular; details: read-out: Stability
# [12] = Metabolic stability in golden hamster liver microsomes S9 fraction assessed as UGT-mediated metabolism by measuring parent compound remaining measured after 60 mins in presence of NADPH; format: ADME, subcellular, Mesocricetus auratus; details: read-out: Stability
# [13] = Metabolic stability in mouse liver microsomes S9 fraction assessed as CYP450-mediated metabolism by measuring parent compound remaining measured after 30 mins in presence of NADPH; format: ADME, subcellular; details: read-out: Stability
# Leishmania infantum [14] = assay: (§1) Antileishmanial activity against sodium stibogluconate, potassium antimonyl tartrate and MIL resistant intracellular Leishmania infantum MHOM/FR/96/LEM3323-CI4 MIL5C13 promastigotes infected in Swiss mouse peritoneal macrophages assessed as inhibition of parasite growth measured after 96 hrs by microscopic analysis; format: functional, organism-based; details: MHOM/FR/96/LEM3323-CI4 MIL5C13, Peritoneal macrophage
# Cytochrome P450 [15] = molecular target: T2, Cytochrome P450 (Homo sapiens, UniProt P04798+P05177+P05181+P08684+P10632+P10635+P11509+P11712+P13584+P20813+P20815+P20853+P24462+P24903+P33260+P33261+P51589+P78329+P98187+Q02928+Q08477+Q16678+Q16696+Q5TCH4+Q6VVX0+Q7Z449+Q8TAV3+Q96SQ9+Q9HB55); assay: Metabolic stability in human liver microsomes S9 fraction assessed as CYP450-mediated metabolism by measuring parent compound remaining measured after 15 mins in presence of NADPH; format: ADME, subcellular; details: read-out: Stability
# [16] = Metabolic stability in mouse liver microsomes S9 fraction assessed as CYP450-mediated metabolism by measuring parent compound remaining measured after 60 mins in presence of NADPH; format: ADME, subcellular; details: read-out: Stability
# Leishmania infantum [17] = assay: as §1, with “stibogluconate and” for “stibogluconate,”, “tartrate” for “tartrate and MIL”, “MHOM/FR/96/LEM3323-CI4” for “MHOM/FR/96/LEM3323-CI4 MIL5C13”; format: functional, organism-based; details: MHOM/FR/96/LEM3323-CI4, Peritoneal macrophage
# Cytochrome P450 [18] = molecular target: T2, Cytochrome P450; assay: Metabolic stability in human liver microsomes S9 fraction assessed as CYP450-mediated metabolism by measuring parent compound remaining measured after 60 mins in presence of NADPH; format: ADME, subcellular; details: read-out: Stability
# Cytochrome P450 [19] = molecular target: T2, Cytochrome P450; assay: Metabolic stability in human liver microsomes S9 fraction assessed as CYP450-mediated metabolism by measuring parent compound remaining measured after 30 mins in presence of NADPH; format: ADME, subcellular; details: read-out: Stability
# [20] = Metabolic stability in golden hamster liver microsomes S9 fraction assessed as CYP450-mediated metabolism by measuring parent compound remaining measured after 60 mins in presence of NADPH; format: ADME, subcellular, Mesocricetus auratus; details: read-out: Stability
# [21] = molecular target: T1, UDP-glucuronosyltransferases (UGTs); assay: Metabolic stability in human liver microsomes S9 fraction assessed as UGT-mediated metabolism by measuring parent compound remaining measured after 60 mins in presence of NADPH; format: ADME, subcellular; details: read-out: Stability
# [22] = Metabolic stability in golden hamster liver microsomes S9 fraction assessed as UGT-mediated metabolism by measuring parent compound remaining measured after 15 mins in presence of NADPH; format: ADME, subcellular, Mesocricetus auratus; details: read-out: Stability
# Leishmania infantum [23] = assay: as §1, with “PMM” for “MIL”, “PMM” for “MIL5C13”; format: functional, organism-based; details: Peritoneal macrophage
# [24] = Metabolic stability in mouse liver microsomes S9 fraction assessed as CYP450-mediated metabolism by measuring parent compound remaining measured after 15 mins in presence of NADPH; format: ADME, subcellular; details: read-out: Stability
# [25] = Metabolic stability in golden hamster liver microsomes S9 fraction assessed as CYP450-mediated metabolism by measuring parent compound remaining measured after 15 mins in presence of NADPH; format: ADME, subcellular, Mesocricetus auratus; details: read-out: Stability
# [26] = molecular target: T1, UDP-glucuronosyltransferases (UGTs); assay: Metabolic stability in human liver microsomes S9 fraction assessed as UGT-mediated metabolism by measuring parent compound remaining measured after 30 mins in presence of NADPH; format: ADME, subcellular; details: read-out: Stability
# Leishmania infantum [27] = assay: Antileishmanial activity against intracellular Leishmania infantum MHOM/MA(BE)/67 amastigotes infected in golden hamster assessed as reduction of amastigote burdens in bone marrow at 40 mg/kg, po SID for 5 days by geimsa staining based microscopic analysis; format: functional; design: scale not given: the % may be the effect or the level left; details: time 5 day
# Leishmania infantum [28] = assay: Antileishmanial activity against intracellular Leishmania infantum MHOM/MA(BE)/67 amastigotes infected in golden hamster assessed as reduction of amastigote burdens in spleen at 40 mg/kg, po SID for 5 days by geimsa staining based microscopic analysis; format: functional; design: scale not given: the % may be the effect or the level left; details: time 5 day
# Leishmania infantum [29] = assay: Antileishmanial activity against intracellular Leishmania infantum MHOM/MA(BE)/67 amastigotes infected in golden hamster assessed as reduction of amastigote burdens in liver at 40 mg/kg, po SID for 5 days by geimsa staining based microscopic analysis; format: functional; design: scale not given: the % may be the effect or the level left; details: time 5 day
smiles,measurement,setting,value
Cc1ncnc2c1c(/C=C/c1ccccn1)cn2[C@@H]1O[C@H](CO)[C@@H](O)[C@H]1O,CC50 at 72 h,[1],> 64 µM
same,selectivity ratio,[2],> 3.37
same,CC50 at 120 h,[3],> 64 µM
same,EC50,Leishmania infantum [4],19 µM
Cc1ncnc2c1c(-c1cccc3c1N=CC3)cn2[C@@H]1O[C@H](CO)[C@@H](O)[C@H]1O,EC50,Trypanosoma cruzi,3.3 µM
same,CC50 at 72 h,[1],> 64 µM
same,selectivity ratio,[5],> 19
same,selectivity ratio,[2],> 30
same,CC50 at 120 h,[3],> 64 µM
same,EC50,Leishmania infantum [4],2.1 µM
Cc1ncnc2c1c(-c1ncccc1Cl)cn2[C@@H]1O[C@H](CO)[C@@H](O)[C@H]1O,EC50,Trypanosoma cruzi,0.7 µM
same,remaining at 0.25 h,[6],92%
same,remaining at 0.5 h,[7],96%
same,remaining at 0.25 h,[8],93%
same,remaining at 0.5 h,[9],91%
same,CC50 at 72 h,[1],> 64 µM
same,remaining at 0.5 h,[10],98%
same,remaining at 1 h,[11],98%
same,remaining at 1 h,[12],96%
same,remaining at 0.5 h,[13],83%
same,selectivity ratio,[5],> 91
same,EC50,Leishmania infantum [14],0.73 µM
same,remaining at 0.25 h,Cytochrome P450 [15],107%
same,remaining at 1 h,[16],74%
same,EC50,Leishmania infantum [17],0.67 µM
same,remaining at 1 h,Cytochrome P450 [18],99%
same,remaining at 0.5 h,Cytochrome P450 [19],100%
same,remaining at 1 h,[20],90%
same,remaining at 1 h,[21],101%
same,remaining at 0.25 h,[22],95%
same,EC50,Leishmania infantum [23],1.46 µM
same,remaining at 0.25 h,[24],98%
same,selectivity ratio,[2],> 50
same,CC50 at 120 h,[3],> 64 µM
same,EC50,Leishmania infantum [4],1.2 µM
same,remaining at 0.25 h,[25],86%
same,remaining at 0.5 h,[26],95%
Cc1ncnc2c1c(-c1cccnc1)cn2[C@@H]1O[C@H](CO)[C@@H](O)[C@H]1O,CC50 at 72 h,[1],> 64 µM
same,selectivity ratio,[2],> 2.8
same,CC50 at 120 h,[3],> 64 µM
same,EC50,Leishmania infantum [4],22.6 µM
Cc1ncnc2c1c(-c1ncccn1)cn2[C@@H]1O[C@H](CO)[C@@H](O)[C@H]1O,EC50,Trypanosoma cruzi,5.9 µM
same,CC50 at 72 h,[1],> 64 µM
same,selectivity ratio,[5],> 10
same,selectivity ratio,[2],> 7.8
same,CC50 at 120 h,[3],> 64 µM
same,EC50,Leishmania infantum [4],8.2 µM
CCCCCCCCCCCCCCCCOP(=O)([O-])OCC[N+](C)(C)C [MILTEFOSINE],Activity,Leishmania infantum [27],93.1%
same,Activity,Leishmania infantum [28],99.2%
same,EC50,Leishmania infantum [4],8.3 µM
same,Activity,Leishmania infantum [29],94%
Cc1ncnc2c1c(-c1cccc3cccnc13)cn2[C@@H]1O[C@H](CO)[C@@H](O)[C@H]1O,EC50,Trypanosoma cruzi,9.6 µM
same,CC50 at 72 h,[1],> 64 µM
same,selectivity ratio,[5],> 6.7
same,selectivity ratio,[2],> 17
same,CC50 at 120 h,[3],> 64 µM
same,EC50,Leishmania infantum [4],3.7 µM
Oc1ncnc2[nH]ncc12 [ALLOPURINOL],CC50 at 72 h,[1],> 64 µM
same,selectivity ratio,[2],> 18
same,CC50 at 120 h,[3],> 64 µM
same,EC50,Leishmania infantum [4],3.5 µM
Cc1ncnc2c1c(-c1cc[nH]n1)cn2[C@@H]1O[C@H](CO)[C@@H](O)[C@H]1O,CC50 at 72 h,[1],27.9 µM
same,selectivity ratio,[2],> 8
same,CC50 at 120 h,[3],> 64 µM
same,EC50,Leishmania infantum [4],8 µM
Cc1ncnc2c1c(-c1ccc(Cl)cn1)cn2[C@@H]1O[C@H](CO)[C@@H](O)[C@H]1O,EC50,Trypanosoma cruzi,0.49 µM
same,CC50 at 72 h,[1],26.3 µM
same,selectivity ratio,[5],53
same,selectivity ratio,[2],> 160
same,CC50 at 120 h,[3],> 64 µM
same,EC50,Leishmania infantum [4],0.4 µM
Cc1ncnc2c1c(-c1cncnc1)cn2[C@@H]1O[C@H](CO)[C@@H](O)[C@H]1O,EC50,Trypanosoma cruzi,7.3 µM
same,CC50 at 72 h,[1],> 64 µM
same,selectivity ratio,[5],> 8.8
same,selectivity ratio,[2],> 9.9
same,CC50 at 120 h,[3],> 64 µM
same,EC50,Leishmania infantum [4],6.5 µM
Cc1ncnc2c1c(-c1ccccc1Cl)cn2[C@@H]1O[C@H](CO)[C@@H](O)[C@H]1O,CC50 at 72 h,[1],> 64 µM
same,selectivity ratio,[2],> 3.1
same,CC50 at 120 h,[3],> 64 µM
same,EC50,Leishmania infantum [4],20.4 µM
